± gives the uncertainty stated by the source.
Experiment: xn = mol fraction of the nth substance listed
Details: 100 kPa

With `CCC(=O)[O-].CC[N+]1(C)CCOCC1` + O the viscosity (298.15 K, x1 = 0.0672) was 4.98 ± 0.52 mPa·s, the viscosity (298.15 K, x1 = 0.1305) was 16.4 ± 1.7 mPa·s and the viscosity (298.15 K, x1 = 0.2131) was 50.3 ± 5.1 mPa·s. For the same compound, the viscosity (298.15 K, x1 = 0.2851) was 98.7 ± 10 mPa·s, the viscosity (298.15 K, x1 = 0.4005) was 318 ± 38 mPa·s and the viscosity (298.15 K, x1 = 0.5397) was 1237 ± 180 mPa·s. For the same compound, the viscosity (298.15 K, x1 = 0.6231) was 2366 ± 370 mPa·s, the viscosity (303.15 K, x1 = 0.0672) was 4.23 ± 0.43 mPa·s and the viscosity (303.15 K, x1 = 0.1305) was 13.2 ± 1.3 mPa·s. The viscosity (303.15 K, x1 = 0.2131) was 38.8 ± 3.9 mPa·s, the viscosity (303.15 K, x1 = 0.2851) was 74.6 ± 7.6 mPa·s and the viscosity (303.15 K, x1 = 0.4005) was 223 ± 25 mPa·s. For the same compound, the viscosity (303.15 K, x1 = 0.5397) was 796 ± 110 mPa·s, the viscosity (303.15 K, x1 = 0.6231) was 1660 ± 250 mPa·s and the viscosity (308.15 K, x1 = 0.0672) was 3.64 ± 0.37 mPa·s. It also gave a viscosity (308.15 K, x1 = 0.1305) of 11.2 ± 1.1 mPa·s, a viscosity (308.15 K, x1 = 0.2131) of 30.6 ± 3.1 mPa·s and a viscosity (308.15 K, x1 = 0.2851) of 57.2 ± 5.8 mPa·s. For the same compound, the viscosity (308.15 K, x1 = 0.4005) was 160 ± 17 mPa·s, the viscosity (308.15 K, x1 = 0.5397) was 530 ± 66 mPa·s and the viscosity (308.15 K, x1 = 0.6231) was 1149 ± 160 mPa·s. For the same compound, the viscosity (313.15 K, x1 = 0.0672) was 3.16 ± 0.32 mPa·s, the viscosity (313.15 K, x1 = 0.1305) was 9.32 ± 0.94 mPa·s and the viscosity (313.15 K, x1 = 0.2131) was 24.5 ± 2.5 mPa·s. For the same compound, the viscosity (313.15 K, x1 = 0.2851) was 44.6 ± 4.5 mPa·s, the viscosity (313.15 K, x1 = 0.4005) was 119 ± 12 mPa·s and the viscosity (313.15 K, x1 = 0.5397) was 366 ± 43 mPa·s. For the same compound, the viscosity (313.15 K, x1 = 0.6231) was 786 ± 100 mPa·s, the viscosity (313.15 K, x1 = 0.7436) was 2582 ± 410 mPa·s and the viscosity (318.15 K, x1 = 0.0672) was 2.76 ± 0.28 mPa·s. For the same compound, the viscosity (318.15 K, x1 = 0.1305) was 7.58 ± 0.76 mPa·s, the viscosity (318.15 K, x1 = 0.2131) was 20 ± 2 mPa·s and the viscosity (318.15 K, x1 = 0.2851) was 35.4 ± 3.6 mPa·s. For the same compound, the viscosity (318.15 K, x1 = 0.4005) was 89.3 ± 9.1 mPa·s, the viscosity (318.15 K, x1 = 0.5397) was 258 ± 29 mPa·s and the viscosity (318.15 K, x1 = 0.6231) was 543 ± 68 mPa·s. For the same compound, the viscosity (318.15 K, x1 = 0.7436) was 1792 ± 270 mPa·s, the viscosity (323.15 K, x1 = 0.0672) was 2.44 ± 0.25 mPa·s and the viscosity (323.15 K, x1 = 0.1305) was 6.46 ± 0.65 mPa·s. It also gave a viscosity (323.15 K, x1 = 0.2131) of 16.5 ± 1.7 mPa·s, a viscosity (323.15 K, x1 = 0.2851) of 28.7 ± 2.9 mPa·s and a viscosity (323.15 K, x1 = 0.4005) of 69.1 ± 7 mPa·s. For the same compound, the viscosity (323.15 K, x1 = 0.5397) was 187 ± 20 mPa·s, the viscosity (323.15 K, x1 = 0.6231) was 372 ± 44 mPa·s and the viscosity (323.15 K, x1 = 0.7436) was 1137 ± 160 mPa·s.
